Reference: patent publication US9464056B2, “Fungicidal 4-methylanilino pyrazoles” (E. I. DU PONT DE NEMOURS AND COMPANY, priority 2012, dated 2016)

Experiments:
Format in all cases: in vivo
Septoria tritici = test: Test D: preventive spray on wheat seedlings, Septoria tritici (wheat leaf blotch), visual disease rating; conditions: Zymoseptoria tritici, topical, 504 h, 100 = 100% disease control, 0 = no disease control relative to controls
Source text: (§1) General protocol for preparing test suspensions for Tests A-H: the test compounds were first dissolved in acetone in an amount equal to 3% of the final volume and then suspended at the desired concentration (in ppm) in acetone and purified water (50/50 mix by volume) containing 250 ppm of the surfactant Trem® 014 (polyhydric alcohol esters). The resulting test suspensions were then used in Tests A-F. Spraying a 40 ppm test suspension to the point of run-off on the test plants was the equivalent of a rate of 160 g/ha. Unless otherwise indicated, the rating values indicate a 40 ppm test suspension was used. The test suspension was sprayed to the point of run-off on wheat seedlings. The following day the seedlings were inoculated with a spore suspension of Septoria tritici (the causal agent of wheat leaf blotch) and incubated in saturated atmosphere at 24° C. for 48 h, and then moved to a growth chamber at 20° C. for 19 days, after which time visual disease ratings were made. Results for Tests A-F are given in Table A. In the Table, a rating of 100 indicates 100% disease control and a rating of 0 indicates no disease control (relative to the controls). A dash (-) indicates no test results.

[1] = tested on: Blumeria graminis f. sp. tritici; test: Test F: preventive spray on wheat seedlings, Blumeria graminis f. sp. tritici (wheat powdery mildew), visual disease rating; conditions: topical, 192 h, 100 = 100% disease control, 0 = no disease control relative to controls
Source text: as §1, with “spore dust” for “spore suspension”, “of Blumeria graminis f. sp.” for “of Septoria”, “tritici (also known as Erysiphe graminis f. sp. tritici, the” for “tritici (the”, “wheat powdery mildew)” for “wheat leaf blotch)”, “in” for “in saturated atmosphere at 24° C. for 48 h, and then moved to”, “for 8” for “for 19”

[2] = Single oral dose pharmacokinetics in rats, plasma and fat analysed by LC/MS (fat:plasma ratio); conditions: vertebrate animals (rats), single oral gavage dose; compared to corresponding analogs
Experimental: The pharmacokinetic properties of compounds of Formula 1 can be measured using a wide variety of assay protocols known in the science of pharmacology. In one illustrative method involving a single oral dose, three male and three female rats receive a single dose of a test substance via oral gavage. Approximately 0.25 mL of blood is collected via tail vein immediately prior to dosing, and then at 0.25, 0.5, 1, 2, 4, 8, 12, 24 h and every 24 h thereafter until sacrifice. At sacrifice, fat is also collected to determine the fat:plasma ratio at sacrifice. […] After removal of the proteins, the plasma is analyzed for parent compound and/or metabolites by liquid chromatography-mass spectrometry (LC/MS). […] The extract is then analyzed for parent compound and/or metabolites by LC/MS. The plasma pharmacokinetic data is then analyzed using nonlinear modeling software (e.g., WinNonlin™ from Pharsight, Cary, N.C., U.S.A.) to determine half-life of the administered compound in plasma, the time after administration when the maximum plasma concentration is reached (Tmax), the maximum plasma concentration (Cmax) and the area under the plasma concentration curve (AUC). […] However, by using multiple rats sacrificed after different intervals from time of dosing, such parameters as Cmax for fat are determined.

In the case of `Cc1cc(F)c(Nc2c(-c3ccc(F)cc3Cl)c(C)nn2C)c(Br)c1` [Compound 1, N-(2-bromo-6-fluoro-4-methylphenyl)-4-(2-chloro-4-fluorophenyl)-1,3-dimethyl-1H-pyrazol-5-amine], the pest or weed control at 40 µg/mL (Septoria tritici) is reported as 100%, the pest or weed control at 40 µg/mL [1] is reported as 100% and the distribution into fat [2] is reported as “significantly diminished distribution into fat”.
